In patent publication US20230159496A1, “COMPOUNDS AND METHODS FOR MODULATING SPLICING” (REMIX THERAPEUTICS INC., priority 2020, published 2023):
Where two headings read alike, the source gives them in different places.

What was measured:
Assay type in all cases: cell-based
[1] = system: SMN2 CJ mRNA; assay: Gene panel canonical junction qPCR assay, SMN2; details: read-out: SMN2 IC50
In short: (§1)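 A673 or K562 cells were treated for 24 h at 37 °C with an 11-point 3-fold dilution, top dose 10 uM, DMSO ≤0.25%. Canonical junction mRNA in lysates was quantified by one-step RT-qPCR and normalized to GAPDH, GUSB or PPIA.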

[2] = system: HTT mRNA; assay: Splicing assay (RT-qPCR) monitoring HTT canonical junction (CJ) and alternative junction (AJ) mRNA isoforms
In short: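 A673 or K562 cells treated 24 h at 37 °C with an 11-point 3-fold dilution (top 10 uM final, DMSO ≤0.25%). Lysates assayed by one-step RT-qPCR for HTT CJ and AJ isoforms, normalized to GAPDH, GUSB (K562) or PPIA (A673).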

[3] = system: Target C CJ mRNA; assay: Gene panel canonical junction qPCR assay, Target C; details: read-out: Target C IC50
In short: as §1

[4] = system: HTT CJ mRNA; assay: Gene panel canonical junction qPCR assay, HTT; details: read-out: HTT IC50
In short: as §1

[5] = decrease in CJ mRNA levels, gene panel
[6] = decrease in CJ mRNA (50% response), A673 or K562 cells, 24 h treatment, top dose 10 uM, read-out: HTT CJ AC50
[7] = increase in AJ mRNA (50% response), A673 or K562 cells, 24 h treatment, top dose 10 uM, read-out: HTT AJ AC50

| SMILES | IC50 [1, 5] [nM] | AC50 [2, 6] [nM] | AC50 [2, 7] [nM] | IC50 [3, 5] [nM] | IC50 [4, 5] [nM] | IC50 [1] [nM] | AC50 ([2]; 24 h, read-out: HTT AJ AC50 (nM)) [nM] | AC50 ([2]; 24 h, read-out: HTT CJ AC50 (nM)) [nM] | IC50 [3] [nM] | IC50 [4] [nM] |
| --- | --- | --- | --- | --- | --- | --- | --- | --- | --- | --- |
| Cc1cn2cc(-c3ccc4c(=O)n(C5CCN(C)CC5)cnc4c3F)cc(F)c2n1 [Compound 227, 8-fluoro-7-(8-fluoro-2-methylimidazo[1,2-a]pyridin-6-yl)-3-(1-methylpiperidin-4-yl)quinazolin-4(3H)-one] | 100 to 1000 | 1000 to 10000 | 1000 to 10000 | > 10000 | 1000 to 10000 |  |  |  |  |  |
| Cc1nc2c(F)cc(-c3ccc4c(=O)n(C5CCNCC5)cnc4c3)cc2s1 [Compound 285] | < 100 | 1000 to 10000 | > 10000 | > 10000 | 1000 to 10000 |  |  |  |  |  |
| Cc1nc2c(F)cc(-c3ccc4c(c3)CCN(C3CCNCC3)C4=O)cc2o1 [Compound 215] | < 100 | 1000 to 10000 | 1000 to 10000 | 1000 to 10000 | 1000 to 10000 |  |  |  |  |  |
| Cc1cn2cc(-c3ccc4c(=O)n(C5CCNCC5)cnc4c3)c(C)cc2n1 [Compound 244] | 100 to 1000 | > 10000 | > 10000 | > 10000 | > 10000 |  |  |  |  |  |
| O=c1c2ccc(-c3cn[nH]c3)cc2cnn1C1CCNCC1 [Compound 261] | 1000 to 10000 | > 10000 | > 10000 | > 10000 | > 10000 |  |  |  |  |  |
| Cc1cn2cc(-c3ccc4c(c3)CCN(C3CCNCC3)C4=O)cc(C)c2n1 [Compound 217] | 100 to 1000 | 1000 to 10000 | 1000 to 10000 | > 10000 | 1000 to 10000 |  |  |  |  |  |
| Cc1cn2nc(-c3ccc4c(=O)n(C5CCNCC5)ncc4c3)cc2c(C)n1 [Compound 260] | 100 to 1000 | 100 to 1000 | 100 to 1000 | 1000 to 10000 | 100 to 1000 |  |  |  |  |  |
| CN1CCC(Nc2ccc3c(=O)n(-c4ccc5nn(C)cc5c4)cnc3c2)CC1 [Compound 163, 3-(2-methyl-2H-indazol-5-yl)-7-((1-methylpiperidin-4-yl)amino)quinazolin-4(3H)-one] |  |  |  |  |  | > 10000 | > 10000 | > 10000 | > 10000 | > 10000 |
| Cn1cc2ccc(-n3cnc4cc(NC5CCNCC5)ccc4c3=O)cc2n1 [Compound 204, 3-(2-methyl-2H-indazol-6-yl)-7-(piperidin-4-ylamino)quinazolin-4(3H)-one] | > 10000 | > 10000 | > 10000 | > 10000 | > 10000 |  |  |  |  |  |
| Cc1cn2nc(-c3ccc4nc(N5CCNC6(CC6)C5)[nH]c(=O)c4c3)cc(C)c2n1 [Compound 190] | 100 to 1000 | 100 to 1000 | 100 to 1000 | 100 to 1000 | 100 to 1000 |  |  |  |  |  |
| Cc1cn2cc(-c3ccc4c(c3)CCN(C3CCNCC3)C4=O)nc2c(C)n1 [Compound 221] | 100 to 1000 | > 10000 | > 10000 | > 10000 | > 10000 |  |  |  |  |  |
| Cc1cn2nc(-c3ccc4c(=O)n(C5CCN(C)CC5)ncc4c3)cc(C)c2n1 [Compound 265] | < 100 | < 100 | < 100 | 100 to 1000 | < 100 |  |  |  |  |  |
| Cc1nc2c(F)cc(-c3ccc4c(=O)n(C5CCNCC5)ncc4c3)cc2s1 [Compound 253] | 100 to 1000 | 1000 to 10000 | 1000 to 10000 | 1000 to 10000 | 1000 to 10000 |  |  |  |  |  |
| Cn1cc2cc(-n3cnc4cc(C5CCNCC5)ccc4c3=O)ccc2n1 [Compound 172, 3-(2-methyl-2H-indazol-5-yl)-7-(piperidin-4-yl)quinazolin-4(3H)-one] | > 10000 | > 10000 | > 10000 | > 10000 | > 10000 |  |  |  |  |  |
| Cc1cn2cc(-n3cnc4cc(N5CCNCC5)ccc4c3=O)cc(F)c2n1 [Compound 228, 3-(8-fluoro-2-methylimidazo[1,2-a]pyridin-6-yl)-7-(piperazin-1-yl)quinazolin-4(3H)-one] | 100 to 1000 | 100 to 1000 | 100 to 1000 | 100 to 1000 | 100 to 1000 |  |  |  |  |  |
| Cc1cn2nc(-c3ccc4c(=O)n([C@@H]5CCN(C)[C@H](C)C5)ncc4c3)cc(C)c2n1 [Compound 277] | < 100 | 100 to 1000 | 100 to 1000 | 1000 to 10000 | 100 to 1000 |  |  |  |  |  |
